Measured values taken from article PMC10653547, “Synergistic effect of two antimicrobial peptides, BP203 and MAP-0403 J-2 with conventional antibiotics against colistin-resistant Escherichia coli and Klebsiella pneumoniae clinical isolates” (PLOS ONE, 2023).
Values after ≈ are worked out from the molar mass of the structure shown. “Also recorded” adds a separate entry of the source. Read-outs that look alike come from different tables or passages of the source.

Assays:
[1] = test system: K. pneumoniae ATCC BAA-1706
Procedure: (§1) The MICs of BP203 and MAP-0403 J-2 against clinically colistin-resistant E. coli and K. pneumoniae isolates were determined using the broth microdilution method, according to CLSI recommendations. Briefly, the peptides were subjected to serial dilution in cation-adjusted Mueller-Hinton broth (CAMHB) and added to a 96-well microtiter plate (Wuxi NEST Biotechnology, Wuxi, China). Subsequently, bacterial suspensions from freshly mid-log phase cultures were diluted to 10^6 CFU/mL with CAMHB, and introduced to each well containing the peptides.
(§2) The antibacterial activity of BP203 and MAP-0403 J-2 was evaluated concerning their response to temperature, pH, serum, and salt ions using the MIC assay, following the previously mentioned procedure. The MIC values of peptides were determined against E. coli ATCC29522 and K. pneumoniae ATCC BAA-1706. […] For the pH stability assay, both peptides were incubated in buffers with different pH values (100 mM buffers: glycine-HCl buffer (pH 2.0), sodium acetate buffer (pH 4.0), sodium phosphate buffer (pH 6.0), Tris-HCl buffer (pH 8.0), and glycine-NaOH buffer (pH 10.0)) for 1 h at 37°C. […] For serum stability assay, both peptides were exposed to 25% and 50% fetal bovine serum (FBS) for 1 h at 37°C, followed by a heat activation step for 30 min at 60°C. Afterward, the peptide solutions were serially diluted and MIC was subsequently determined. For the salt stability assay, each peptide was treated in MHB supplemented with different salts at their physiological concentrations; NaCl (100, 150, and 200 mM), MgCl2 (0.5, 1 and 2 mM), and FeCl3 […]. The serial dilutions of peptides were incubated with tested strains for MIC testing. The MICs were observed after 20–24 h of incubation at 37°C.

E. coli ATCC 25922 = test system: E. coli ATCC 25922
Procedure: as §1, §2

[2] = test system: E. coli ATCC 25922 and colistin-resistant E. coli clinical isolates
Procedure: as §1

[3] = test system: K. pneumoniae ATCC BAA-1706 and colistin-resistant K. pneumoniae clinical isolates
Procedure: as §1

sheep red blood cells = test: Hemolytic activity assay; assay type: cell-based; conditions: at concentrations as high as 200 μg/mL
Procedure: Sheep erythrocytes were employed to assess the hemolytic activity of BP203 and MAP-0403 J-2, following previously described with some modifications. Briefly, defibrinated sheep red blood cells (sRBCs) were centrifuged at 1,000× g, 4°C for 10 min. The packed sRBCs underwent three times washes with phosphate buffer saline (PBS), at pH 7.4, and were subsequently suspended in PBS to achieve a concentration of 4% (v/v). […] Following an incubation period of 1 h at 37°C, the mixtures were centrifuged at room temperature, 1,000× g for 10 min. The supernatants were collected and transferred to a 96-well microplate. Next, absorbance measurement was taken at 540 nm using a microplate reader (Tecan Group, Zurich, Switzerland). Blank, negative and positive controls were established using sRBCs incubated with PBS alone, BSA solution, and 0.1% Triton X-100, respectively. […] The percentage of hemolytic activity was calculated with the following equation: Hemolysis (%) = {(Sample absorbance—PBS absorbance)/(0.1% Triton X-100 absorbance—PBS absorbance)} × 100.

[4] = at 150 μM (~300 μg/mL); cited from earlier work
Text: The stability of AMPs is crucial for storage and applications. Temperature and pH are critical parameters impacting AMP stability. In addition, the good stability of AMPs to physiological salts and serum has been considered a desirable property for clinical applications. In this study, BP203 and MAP-0403 J-2 retained antibacterial activity under elevated temperatures, various pH conditions, and in the presence of physiological salts and serum environment. […] The hemolytic activity of BP203 at 150 μM (~300 μg/mL) wa ...

[5] = 25% fetal bovine serum, 1 h at 37 °C
[6] = 50% fetal bovine serum, 1 h at 37 °C
[7] = pH 2, 100 mM glycine-HCl buffer, 1 h at 37 °C, neutralized
[8] = pH 4, 100 mM sodium acetate buffer, 1 h at 37 °C, neutralized
[9] = pH 6, 100 mM sodium phosphate buffer, 1 h at 37 °C, neutralized
[10] = pH 8, 100 mM Tris-HCl buffer, 1 h at 37 °C, neutralized
[11] = pH 10, 100 mM glycine-NaOH buffer, 1 h at 37 °C, neutralized
[12] = peptide incubated 1 h at 25 °C (control)

CC[C@H](C)[C@H](NC(=O)[C@H](CCCCN)NC(=O)[C@H](CCCCN)NC(=O)[C@H](Cc1ccccc1)NC(=O)[C@H](CC(C)C)NC(=O)[C@H](CCCCN)NC(=O)[C@@H](N)CCCCN)C(=O)N[C@@H](CC(C)C)C(=O)N[C@@H](CCCNC(=N)N)C(=O)N[C@@H](Cc1ccc(O)cc1)C(=O)N[C@@H](CC(C)C)C(N)=O [BP203]
MIC after FBS treatment ([1]; 0% FBS (control)): 4 µg/mL (≈ 2.76 µM)
MIC after FBS treatment [1, 5]: 4 µg/mL (≈ 2.76 µM)
MIC after FBS treatment [1, 6]: 4 µg/mL (≈ 2.76 µM)
MIC after pH treatment [1, 7]: 4 μg/mL
MIC after pH treatment [1, 8]: 4 μg/mL
MIC after pH treatment [1, 9]: 4 μg/mL
MIC after pH treatment ([1]; pH 7 (control)): 4 μg/mL
MIC after pH treatment [1, 10]: 4 μg/mL
MIC after pH treatment [1, 11]: 4 μg/mL
MIC after temperature treatment [1, 12]: 4 µg/mL (≈ 2.76 µM)
MIC after temperature treatment ([1]; peptide incubated 1 h at 37 °C): 4 µg/mL (≈ 2.76 µM)
MIC after temperature treatment ([1]; peptide incubated 1 h at 50 °C): 4 µg/mL (≈ 2.76 µM)
MIC after temperature treatment ([1]; peptide incubated 1 h at 70 °C): 4 µg/mL (≈ 2.76 µM)
MIC after temperature treatment ([1]; peptide incubated 1 h at 90 °C): 4 µg/mL (≈ 2.76 µM)
MIC after FBS treatment (E. coli ATCC 25922; 0% FBS (control)): 4 µg/mL (≈ 2.76 µM)
MIC after FBS treatment (E. coli ATCC 25922; [5]): 4 µg/mL (≈ 2.76 µM)
MIC after FBS treatment (E. coli ATCC 25922; [6]): 8 µg/mL (≈ 5.52 µM)
MIC after pH treatment (E. coli ATCC 25922; [7]): 4 μg/mL
MIC after pH treatment (E. coli ATCC 25922; [8]): 4 μg/mL
MIC after pH treatment (E. coli ATCC 25922; [9]): 4 μg/mL
MIC after pH treatment (E. coli ATCC 25922; pH 7 (control)): 4 μg/mL
MIC after pH treatment (E. coli ATCC 25922; [10]): 4 μg/mL
MIC after pH treatment (E. coli ATCC 25922; [11]): 4 μg/mL
MIC after temperature treatment (E. coli ATCC 25922; [12]): 4 µg/mL (≈ 2.76 µM)
MIC after temperature treatment (E. coli ATCC 25922; peptide incubated 1 h at 37 °C): 4 µg/mL (≈ 2.76 µM)
MIC after temperature treatment (E. coli ATCC 25922; peptide incubated 1 h at 50 °C): 4 µg/mL (≈ 2.76 µM)
MIC after temperature treatment (E. coli ATCC 25922; peptide incubated 1 h at 70 °C): 4 µg/mL (≈ 2.76 µM)
MIC after temperature treatment (E. coli ATCC 25922; peptide incubated 1 h at 90 °C): 4 µg/mL (≈ 2.76 µM)
MBC ([2]; E. coli ATCC 25922): 4 µg/mL (≈ 2.76 µM)
MIC ([2]; E. coli ATCC 25922): 4 µg/mL (≈ 2.76 µM)
MBC ([2]; EC-01): 2 µg/mL (≈ 1.38 µM)
MIC ([2]; EC-01): 2 µg/mL (≈ 1.38 µM)
MBC ([2]; EC-02): 8 µg/mL (≈ 5.52 µM)
MIC ([2]; EC-02): 8 µg/mL (≈ 5.52 µM)
MBC ([2]; EC-03): 2 µg/mL (≈ 1.38 µM)
MIC ([2]; EC-03): 2 µg/mL (≈ 1.38 µM)
MBC ([2]; EC-04): 4 µg/mL (≈ 2.76 µM)
MIC ([2]; EC-04): 2 µg/mL (≈ 1.38 µM)
MBC ([2]; EC-05): 8 µg/mL (≈ 5.52 µM)
MIC ([2]; EC-05): 8 µg/mL (≈ 5.52 µM)
MBC ([2]; EC-06): 2 µg/mL (≈ 1.38 µM)
MIC ([2]; EC-06): 2 µg/mL (≈ 1.38 µM)
MBC ([2]; EC-07): 8 µg/mL (≈ 5.52 µM)
MIC ([2]; EC-07): 8 µg/mL (≈ 5.52 µM)
MBC ([2]; EC-08): 16 µg/mL (≈ 11 µM)
MIC ([2]; EC-08): 16 µg/mL (≈ 11 µM)
MBC ([2]; EC-09): 2 µg/mL (≈ 1.38 µM)
MIC ([2]; EC-09): 2 µg/mL (≈ 1.38 µM)
MBC ([2]; EC-10): 8 µg/mL (≈ 5.52 µM)
MIC ([2]; EC-10): 8 µg/mL (≈ 5.52 µM)
MICs against colistin-resistant E. coli clinical isolates ([2]; range over ten isolates): 2 to 16 µg/mL
MIC for the majority of (most) colistin-resistant K. pneumoniae isolates [3]: > 128 µg/mL
MBC ([3]; K. pneumoniae ATCC BAA-1706): 4 µg/mL (≈ 2.76 µM)
MIC ([3]; K. pneumoniae ATCC BAA-1706): 4 µg/mL (≈ 2.76 µM)
MBC ([3]; KP-01): 16 µg/mL (≈ 11 µM)
MIC ([3]; KP-01): 16 µg/mL (≈ 11 µM)
MBC ([3]; KP-02): 256 µg/mL (≈ 177 µM)
MIC ([3]; KP-02): 256 µg/mL (≈ 177 µM)
MBC ([3]; KP-03): 128 µg/mL (≈ 88.3 µM)
MIC ([3]; KP-03): 128 µg/mL (≈ 88.3 µM)
MBC ([3]; KP-04): 512 µg/mL (≈ 353 µM)
MIC ([3]; KP-04): 512 µg/mL (≈ 353 µM)
MBC ([3]; KP-05): 32 µg/mL (≈ 22.1 µM)
MIC ([3]; KP-05): 32 µg/mL (≈ 22.1 µM)
MBC ([3]; KP-06): 256 µg/mL (≈ 177 µM)
MIC ([3]; KP-06): 256 µg/mL (≈ 177 µM)
MBC ([3]; KP-07): 128 µg/mL (≈ 88.3 µM)
MIC ([3]; KP-07): 128 µg/mL (≈ 88.3 µM)
MBC ([3]; KP-08): 256 µg/mL (≈ 177 µM)
MIC ([3]; KP-08): 256 µg/mL (≈ 177 µM)
MBC ([3]; KP-09): 512 µg/mL (≈ 353 µM)
MIC ([3]; KP-09): 512 µg/mL (≈ 353 µM)
MBC ([3]; KP-10): 512 µg/mL (≈ 353 µM)
MIC ([3]; KP-10): 512 µg/mL (≈ 353 µM)
MIC against colistin-resistant K. pneumoniae clinical isolates ([3]; range over ten isolates): 16 to 512 µg/mL
Hemolysis (in words) (sheep red blood cells): negligible hemolysis; also recorded: no hemolytic activity
Hemolytic activity [4]: 31%
